Data as given in patent publication US20250313546A1, “NUCLEIC ACID BINDERS” (UNIVERSITY OF STRATHCLYDE, priority 2022, published 2025).
Converted amounts (≈) assume the structure as drawn.

What was measured:
Type in all cases: cell-based
[1] = tested on: Staphylococcus aureus (ATCC 43300); assay: Antibacterial MIC, broth microdilution (CLSI); conditions: for MIC80: Staphylococcus aureus, ATCC43300, read-out: MIC80 S. aureus
[2] = tested on: Enterococcus faecalis (ATCC 51299); assay: Antibacterial MIC, broth microdilution (CLSI); conditions: for MIC80: Enterococcus faecalis, ATCC51299, read-out: MIC80 E. faecalis
[3] = tested on: Escherichia coli (ATCC 25922); assay: Antibacterial MIC, broth microdilution (CLSI); conditions: for MIC80: Escherichia coli, ATCC25922, read-out: MIC80 E. coli
[4] = tested on: T. vaginalis; assay: Trichomonas resorufin assay
[5] = SI, IC50 (μM)/MIC80 (μM), HEK293 cytotoxicity, Alkyl Amidines and NH Pyrroles

Row | Molecule | MIC80 [1] | MIC80 [2] | MIC80 [3] | further results
1 | [H]/N=C(\CCNC(=O)c1cc(NC(=O)c2cc(NC(=O)c3ccc(C=Cc4ccc(N(C)C)cc4)nc3)cn2C)cn1C)NCCN1CCSCC1 [Ia52, (E)-6-(4-(dimethylamino)styryl)-N-(5-((5-((3-imino-3-((2-thiomorpholinoethyl)amino)propyl)carbamoyl)-1-methyl-1H-pyrrol-3-yl)carbamoyl)-1-methyl-1H-pyrrol-3-yl)nicotinamide] | 5 to 25 µM (≈ 3.55 to 17.8 µg/mL) | > 100 µM | > 100 µM | 
2 | C/N=C(\CCNC(=O)c1cc(NC(=O)c2cc(NC(=O)c3ccc(/C=C/c4cccc(OC)c4)cc3)cn2C)cn1C)NC [Ia53, 4-(4-((E)-3-methoxystyryl)benzamido)-1-methyl-N-(1-methyl-5-(((E)-3-(methylamino)-3-(methylimino)propyl)carbamoyl)-1H-pyrrol-3-yl)-1H-pyrrole-2-carboxamide] | < 5 µM | 5 to 25 µM (≈ 2.98 to 14.9 µg/mL) | > 100 µM | 
3 | C/N=C(\CCNC(=O)c1cc(NC(=O)c2cc(NC(=O)c3ccc(/C=C/c4ccc(OC)cc4)nc3)cn2C)cn1C)NC [Ia54, 6-((E)-4-methoxystyryl)-N-(1-methyl-5-((1-methyl-5-(((E)-3-(methylamino)-3-(methylimino)propyl)carbamoyl)-1H-pyrrol-3-yl)carbamoyl)-1H-pyrrol-3-yl)nicotinamide] | 5 to 25 µM (≈ 2.98 to 14.9 µg/mL) | 5 to 25 µM (≈ 2.98 to 14.9 µg/mL) | > 100 µM | 
4 | CNC(=N)CCNC(=O)c1cc(NC(=O)c2cc(NC(=O)c3ccc(/C=C/c4ccc(OC)cc4)nc3)cn2C)cn1C [Ia55, (E)-N-(5-((5-((3-imino-3-(methylamino)propyl)carbamoyl)-1-methyl-1H-pyrrol-3-yl)carbamoyl)-1-methyl-1H-pyrrol-3-yl)-6-(4-methoxystyryl)nicotinamide] | 5 to 25 µM (≈ 2.91 to 14.6 µg/mL) | 5 to 25 µM (≈ 2.91 to 14.6 µg/mL) | > 100 µM | 
5 | CNC(=N)CCNC(=O)c1cc(NC(=O)c2cc(NC(=O)c3ccc(/C=C/c4cccc(OC)c4)cc3)cn2C)cn1C [Ia56, (E)-N-(3-imino-3-(methylamino)propyl)-4-(4-(4-(3-methoxystyryl)benzamido)-1-methyl-1H-pyrrole-2-carboxamido)-1-methyl-1H-pyrrole-2-carboxamide] | 5 to 25 µM (≈ 2.91 to 14.5 µg/mL) | 5 to 25 µM (≈ 2.91 to 14.5 µg/mL) | > 100 µM | 
6 | Cn1cc(NC(=O)c2cc(NC(=O)c3ccc(/C=C/c4cnc5ccccc5c4)cc3)cn2C)cc1C(=O)NCC/C(=N/CC(F)F)NCC(F)F [Ia57, N—((Z)-3-((2,2-difluoroethyl)amino)-3-((2,2-difluoroethyl)imino)propyl)-1-methyl-4-(1-methyl-4-(4-((E)-2-(quinolin-3-yl)vinyl)benzamido)-1H-pyrrole-2-carboxamido)-1H-pyrrole-2-carboxamide] | < 5 µM | 5 to 25 µM (≈ 3.58 to 17.9 µg/mL) | > 100 µM | 
7 | COCCNC(=N)CCNC(=O)c1cc(NC(=O)c2cc(NC(=O)c3ccc(/C=C/c4cnc5ccccc5c4)cc3)cn2C)cn1C [Ia58, (E)-N-(3-imino-3-((2-methoxyethyl)amino)propyl)-1-methyl-4-(1-methyl-4-(4-(2-(quinolin-3-yl)vinyl)benzamido)-1H-pyrrole-2-carboxamido)-1H-pyrrole-2-carboxamide] | < 5 µM | 5 to 25 µM (≈ 3.23 to 16.2 µg/mL) | > 100 µM | 
8 | C/N=C(/CCNC(=O)c1cc(NC(=O)c2cc(NC(=O)c3ccc(/C=C/c4ccc(F)c(OC)c4)nc3)cn2C)cn1C)NC [Ia59, 6-((E)-4-fluoro-3-methoxystyryl)-N-(1-methyl-5-((1-methyl-5-(((Z)-3-(methylamino)-3-(methylimino)propyl)carbamoyl)-1H-pyrrol-3-yl)carbamoyl)-1H-pyrrol-3-yl)nicotinamide] | < 5 µM | > 100 µM | > 100 µM | 
9 | C/N=C(/CCNC(=O)c1cc(NC(=O)c2cc(NC(=O)c3ccc(/C=C/c4cncnc4)cc3)cn2C)cn1C)NC [Ia60, 1-methyl-4-(1-methyl-4-(4-((E)-2-(pyrimidin-5-yl)vinyl)benzamido)-1H-pyrrole-2-carboxamido)-N—((Z)-3-(methylamino)-3-(methylimino)propyl)-1H-pyrrole-2-carboxamide] | < 5 µM | 5 to 25 µM (≈ 2.84 to 14.2 µg/mL) | > 100 µM | 
10 | C/N=C(/CCNC(=O)c1cc(NC(=O)c2cc(NC(=O)c3ccc(/C=C/c4cccc(C(F)(F)F)c4)nc3)cn2C)cn1C)NC [Ia61, N-(1-methyl-5-((1-methyl-5-(((Z)-3-(methylamino)-3-(methylimino)propyl)carbamoyl)-1H-pyrrol-3-yl)carbamoyl)-1H-pyrrol-3-yl)-6-((E)-3-(trifluoromethyl)styryl)nicotinamide] | 5 to 25 µM (≈ 3.17 to 15.9 µg/mL) | 5 to 25 µM (≈ 3.17 to 15.9 µg/mL) | > 100 µM | 
11 | Cn1cc(NC(=O)c2cc(NC(=O)c3ccc(/C=C/c4cnc5ccccc5c4)cc3)cn2C)cc1C(=O)NCCC(=N)NCC(F)F [Ia62, (E)-N-(3-((2,2-difluoroethyl)amino)-3-iminopropyl)-1-methyl-4-(1-methyl-4-(4-(2-(quinolin-3-yl)vinyl)benzamido)-1H-pyrrole-2-carboxamido)-1H-pyrrole-2-carboxamide] | < 5 µM | < 5 µM | > 100 µM | 
12 | CN(C)c1ccc(/C=C/c2ccc(C(=O)Nc3cc(C(=O)Nc4cc(C(=O)NCCC(=N)NCC(F)F)n(C)c4)n(C)c3)cn2)cc1 [Ia63, (E)-N-(5-((5-((3-((2,2-difluoroethyl)amino)-3-iminopropyl)carbamoyl)-1-methyl-1H-pyrrol-3-yl)carbamoyl)-1-methyl-1H-pyrrol-3-yl)-6-(4-(dimethylamino)styryl)nicotinamide] | < 5 µM | 25 to 100 µM (≈ 16.1 to 64.6 µg/mL) | > 100 µM | 
13 | [H]/N=C(\CCNC(=O)c1cc(NC(=O)c2cc(NC(=O)c3ccc(C=Cc4ccc(N(C)C)cc4)nc3)cn2C)cn1C)N1CCSCC1 [Ib9, (E)-6-(4-(dimethylamino)styryl)-N-(5-((5-((3-imino-3-thiomorpholinopropyl)carbamoyl)-1-methyl-1H-pyrrol-3-yl)carbamoyl)-1-methyl-1H-pyrrol-3-yl)nicotinamide] | < 5 µM | 25 to 100 µM (≈ 16.7 to 66.8 µg/mL) | > 100 µM | 
14 | [H]/N=C(\CCNC(=O)c1cc(NC(=O)c2cc(NC(=O)c3ccc(C=Cc4ccc(N(C)C)cc4)nc3)cn2C)cn1C)N1CCN(C)CC1 [Ib10, (E)-6-(4-(dimethylamino)styryl)-N-(5-((5-((3-imino-3-(4-methylpiperazin-1-yl)propyl)carbamoyl)-1-methyl-1H-pyrrol-3-yl)carbamoyl)-1-methyl-1H-pyrrol-3-yl)nicotinamide] | 5 to 25 µM (≈ 3.32 to 16.6 µg/mL) | > 100 µM | > 100 µM | 
15 | [H]/N=C(\CCNC(=O)c1cc(NC(=O)c2cc(NC(=O)c3ccc(C=Cc4ccc(N(C)C)cc4)nc3)cn2C)cn1C)N1CCOCC1 [Ib11, (E)-6-(4-(dimethylamino)styryl)-N-(5-((5-((3-imino-3-morpholinopropyl)carbamoyl)-1-methyl-1H-pyrrol-3-yl)carbamoyl)-1-methyl-1H-pyrrol-3-yl)nicotinamide] | < 5 µM | 5 to 25 µM (≈ 3.26 to 16.3 µg/mL) | > 100 µM | 
16 | CCCCCCCCCCCCCCCCCC[N+](C)(C)CCNC(=O)c1cc(NC(=O)c2cc(NC(=O)c3ccc(/C=C/c4cnc5ccccc5c4)cc3)cn2C)cn1C [Ic17, (E)-N,N-dimethyl-N-(2-(1-methyl-4-(1-methyl-4-(4-(2-(quinolin-3-yl)vinyl)benzamido)-1H-pyrrole-2-carboxamido)-1H-pyrrole-2-carboxamido)ethyl)octadecan-1-aminium] |  |  |  | IC50 ([4]; Trichomonas vaginalis, read-out: IC50 T. vaginalis): > 50 µM
17 | COCCOCCOCC[N+](C)(C)CCNC(=O)c1cc(NC(=O)c2cc(NC(=O)c3ccc(/C=C/c4cnc5ccccc5c4)cc3)cn2C)cn1C [Ic19, (E)-2-(2-(2-methoxyethoxy)ethoxy)-N,N-dimethyl-N-(2-(1-methyl-4-(1-methyl-4-(4-(2-(quinolin-3-yl)vinyl)benzamido)-1H-pyrrole-2-carboxamido)-1H-pyrrole-2-carboxamido)ethyl)ethan-1-aminium] | < 5 µM | 5 to 25 µM | > 100 µM | 
18 | CCCCCC[N+]1(CCNC(=O)c2cc(NC(=O)c3cc(NC(=O)c4ccc(/C=C/c5cnc6ccccc6c5)cc4)cn3C)cn2C)CCOCC1 [Id1, (E)-4-hexyl-4-(2-(1-methyl-4-(1-methyl-4-(4-(2-(quinolin-3-yl)vinyl)benzamido)-1H-pyrrole-2-carboxamido)-1H-pyrrole-2-carboxamido)ethyl)morpholin-4-ium] | < 5 µM | > 100 µM | > 100 µM | 
19 | CCCCCCC[N+]1(CCNC(=O)c2cc(NC(=O)c3cc(NC(=O)c4ccc(/C=C/c5cnc6ccccc6c5)cc4)cn3C)cn2C)CCOCC1 [Id2, (E)-4-heptyl-4-(2-(1-methyl-4-(1-methyl-4-(4-(2-(quinolin-3-yl)vinyl)benzamido)-1H-pyrrole-2-carboxamido)-1H-pyrrole-2-carboxamido)ethyl)morpholin-4-ium] | < 5 µM | > 100 µM | > 100 µM | 
20 | Cn1cc(NC(=O)c2cc(NC(=O)c3ccc(/C=C/c4ccc(C(F)(F)F)cc4)cc3)cn2C)cc1C(=O)NCCC(=N)N [Ref-6, reference compound] |  |  |  | S. aureus Selectivity Indices, Group [1, 5]: A (Group A: SI < 3); E. faecalis Selectivity Indices, Group [2, 5]: A (Group A: SI < 3); T. vaginalis Selectivity Indices, Group ([4]; SI, IC50 (μM)/IC50 (μM), HEK293 cytotoxicity, Alkyl Amidines and NH Pyrroles): A (Group A: SI < 8)
21 | N-(5-((5-(((Z)-3-(ethylamino)-3-(ethylimino)propyl)carbamoyl)-1-methyl-1H-pyrrol-3-yl)carbamoyl)-1-methyl-1H-pyrrol-3-yl)-6-((E)-3-methoxystyryl)nicotinamide [Ia26] |  |  |  | MIC80 S. aureus ([1]; MIC at 80% inhibition, ATCC 43300): * (* means 25 μM < MIC80 <= 100 μM); MIC80 E. faecalis ([2]; MIC at 80% inhibition, ATCC 51299): — (— means MIC80 > 100 μM); MIC80 E. coli ([3]; MIC at 80% inhibition, ATCC 25922): — (— means MIC80 > 100 μM)
